Experimental data published in patent US7094797B2, “Organ fibrosis inhibitor” (Ajinomoto Co., Inc., priority 2001, dated 2006).

Columns and labels:
Hepatic stellate cells = assay: PDGF-stimulated DNA synthesis (BrdU uptake, ELISA) of Hepatic stellate cells; type: cell-based, rat; settings: PDGF 25 ng/ml
Protocol: Hepatic stellate cells were isolated from a male Wistar rat liver and were cultured by the liver perfusion method with pronase E and collagenase. Hepatic stellate cells on day 8 to day 14 were cultured overnight in a culture medium containing 10 vol. % fetal calf serum (FCS). The culture medium was replaced with a culture medium containing 0.1 vol. % FCS, and it was cultured for 48 hours. Subsequently, L-histidine as the test substance was added in an amount to give a concentration of 1 to 30 mM. Then, further, platelet-derived growth factor (PDGF) was added to give a final concentration of 25 ng/ml, and the Hepatic stellate cells were cultured for 24 hours. Six hours before the completion of the culturing, bromodeoxyuridine (BrdU) was added to the culture system. After the completion of the culturing, the BrdU uptake into the cells was assayed by ELISA (enzyme-linked immunosorbent assay). As a control, only PDGF (at the final concentration of 25 ng/ml) was added to the culture medium. When the BrdU uptake in the control was defined as 100%, the value of each of the groups was calculated and the results are shown in FIG. 2.
In the same manner as in Example 2, the effects of L-histidine and D-histidine (individually at 30 mM) on the DNA synthesis of Hepatic stellate cells were compared with each other. When the BrdU uptake in the control was defined as 100%, the value of each of the groups was calculated and is shown in FIG. 3.
Hepatic stellate cells were isolated from male Wistar rat liver, and were cultured by the liver perfusion method with pronase E and collagenase. Hepatic stellate cells on day 8 to day 14 were cultured overnight in a culture medium containing 10 vol. % fetal calf serum (FCS). The culture medium was replaced with a 0.1 vol. % FCS culture medium, and it was cultured for 48 hours. Subsequently, L-cysteine, L-histidine or a composition of L-cysteine and L-histidine as a test substance was added thereto. […] When the BrdU uptake in the control was defined as 100%, the value of each of the groups was calculated and the results are shown in FIG. 4.

[1] = test system: Human kidney mesangial cells; assay: DNA synthesis (BrdU uptake, ELISA) of human kidney mesangial cells stimulated with FCS; type: cell-based; settings: 10 or 30 mM, FCS 5 vol. %, 24 hours; FIG. 6
Protocol: Human kidney mesangial cells were cultured overnight in a culture medium containing 10 vol. % fetal calf serum (FCS). Subsequently, the culture medium was replaced with a 0.1 vol. % FCS culture medium, and it was cultured for 24 hours. Subsequently, L-histidine (His) as a test substance was added in an amount to give a concentration of 10 or 30 mM. Then, further, FCS was added to give a final concentration of 5 vol. %, and the mesangial cells were cultured for 24 hours. Six hours before the completion of the culturing, bromodeoxyuridine (BrdU) was added to the culture system. After the completion of the culturing, the BrdU uptake into the cells was assayed by ELISA (enzyme-linked immunosorbent assay). As a control, only 5 vol. % FCS was added to the culture medium. When the BrdU uptake in the control was defined as 100%, the value of each of the groups was calculated and the results are shown in FIG. 6.

[2] = test system: Human normal lung fibroblast cells (HLF-1 cell); assay: DNA synthesis (BrdU uptake, ELISA) of human normal lung fibroblast cells stimulated with PDGF or FCS; type: cell-based; settings: HLF-1, 10 or 30 mM, 24 hours
Protocol: Human normal lung fibroblast cells (HLF-1 cell) were cultured overnight in a culture medium containing 10 vol. % fetal calf serum (FCS). Subsequently, the culture medium was replaced with a 0.1 vol. % FCS culture medium, and it was cultured for 24 hours. Subsequently, L-histidine (His) as the test substance was added so that the concentration was 10 or 30 mM. Then, further, platelet-derived growth factor (PDGF) was added to give a final concentration of 25 ng/ml or FCS was added to give a final concentration of 5 vol. %, and the HLF-1 cells were cultured for 24 hours. Six hours before the completion of the culturing, bromodeoxyuridine (BrdU) was added to the culture system. After the completion of the culturing, the BrdU uptake into the cells was assayed by ELISA (enzyme-linked immunosorbent assay). As a control, only PDGF (at the final concentration of 25 ng/ml) or FCS (at the final concentration of 5 vol. %) was added to the culture medium.

[3] = test system: liver fibrosis induced by dimethylnitroseamine (DMN) in SD rat; assay: DMN-induced liver fibrosis in rat, amount of hydroxyproline (Hyp) in the liver; type: in vivo; settings: male SD rat, DMN 10 mg/kg i.p. three times weekly for 3 weeks; His 0.2, 0.5, 1.0, 2.0 wt. % in feed, oral; day 21; FIG. 1
Protocol: Dimethylnitroseamine (DMN) was administered intraperitoneally at 10 mg/kg three times weekly to a male 9-week-old SD rat for 3 weeks to induce liver fibrosis. A commercially available feed or experimental diets prepared by adding L-histidine (His) as a test substance at concentrations of 0.2, 0.5, 1.0, and 2.0 wt. % to a commercially available feed were fed beginning on the day of start of DMN administration and thereafter. On day 21 from the start of the DMN administration, the liver was collected to assay the amount of hydroxyproline (Hyp) in the liver as a liver fibrosis marker, using an amino acid analyzer.

[4] = test system: liver damage due to D-galactosamine administration; settings: rat given L-histidine; cited from earlier work
[5] = 30 mM, levels of suppression of L- and D-form almost equal, FIG. 3

For `N[C@H](Cc1c[nH]cn1)C(=O)O` [D-histidine], which “DNA synthesis of Hepatic stellate cells activated with PDGF (BrdU uptake)” value (Hepatic stellate cells; [5]) is on record?
The value was “strongly suppressed”.

Which “DNA synthesis of human kidney mesangial cell with FCS (BrdU uptake)” value [1] does the source give for `N[C@@H](Cc1c[nH]cn1)C(=O)O` [L-histidine] here?
The value was “strongly suppressed”.

And the “DNA synthesis of human normal lung fibroblast cell with FCS (BrdU uptake)” value ([2]; FCS 5 vol. %, FIG. 5b)?
The value was “strongly suppressed”.

And the “DNA synthesis of human normal lung fibroblast cell with PDGF (BrdU uptake)” value ([2]; PDGF 25 ng/ml, FIG. 5a)?
The value was “strongly suppressed”.

And the “amount of Hyp in the liver (liver fibrosis marker)” value [3]?
Its value is “significantly decreased”.

And the “liver damage due to D-galactosamine administration” value [4]?
Its value is “can be reduced”.

What about the “DNA synthesis of Hepatic stellate cells activated with PDGF (BrdU uptake)” value (Hepatic stellate cells; [5]) of the same compound?
The value was “strongly suppressed”.

What about the “DNA synthesis of Hepatic stellate cells activated with PDGF (BrdU uptake)” value (Hepatic stellate cells; 1 to 30 mM, 24 hours, dose-dependent, FIG. 2) of the same compound?
Its value is “strongly suppressed”.
